Results on 2 compounds are retold here after US6949544B2, “Inhibitors of c-Jun N-terminal kinases (JNK) and other protein kinases” (Vertex Pharmaceuticals Incorporated, priority 2001, dated 2005).

Bounds are passed on as bounds.

Type in all cases: biochemical
The target of one assay is T1, activated JNK3 (Homo sapiens, UniProt P53779).
T1 construct: One such construct encodes amino acid residues Ser40-Glu402 of JNK3α1 and is preceded by Met and Gly residues; Met-Gly (initiator methionine and added glycine) (N); made in house; host or cells: E. coli BL21 (DE3)
T1 sequence (P53779 40-402): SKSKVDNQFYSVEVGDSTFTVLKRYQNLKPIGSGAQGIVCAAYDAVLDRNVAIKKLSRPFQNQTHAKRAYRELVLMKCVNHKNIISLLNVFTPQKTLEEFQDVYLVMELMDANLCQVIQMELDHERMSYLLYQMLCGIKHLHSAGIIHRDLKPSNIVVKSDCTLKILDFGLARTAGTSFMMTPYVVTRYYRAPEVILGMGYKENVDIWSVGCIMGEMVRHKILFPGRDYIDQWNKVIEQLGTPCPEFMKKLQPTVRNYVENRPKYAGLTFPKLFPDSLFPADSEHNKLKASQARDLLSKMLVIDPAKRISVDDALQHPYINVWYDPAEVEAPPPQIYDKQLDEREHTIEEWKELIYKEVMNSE
In words: JNK inhibition assay (spectrophotometric coupled-enzyme assay). To be noted: 10 nM activated JNK3, 10 μM ATP; read-out: Activity in the JNK3 Inhibition Assay (Ki rating A-C). Put shortly: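 Activated (doubly phosphorylated, MKK7(DD)-activated) human JNK3, 10 nM, preincubated 10 min at 30 °C with inhibitor in 0.1 M HEPES pH 7.5, 10 mM MgCl2, 200 μM EGF receptor peptide, PK/LDH-coupled. Started with 10 μM ATP; A340 decrease followed at 30 °C. Ki from competitive inhibition model fit.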

The next assay addresses CDK-2/Cyclin A (Homo sapiens, UniProt P24941). The assay can be described thus: CDK2 inhibition assay (standard coupled enzyme assay). The note with it: 25 nM CDK-2/Cyclin A; read-out: CDK2 Inhibitory Activity (Ki rating A-C). The procedure, abridged: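 CDK-2/Cyclin A (25 nM final) started the reaction after 10-min, 30° C preincubation of compound (30 μM final) with peptide (100 μM), ATP and coupling enzymes in HEPES pH 7.5.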

Assay [1] has as its target T2, Lck kinase purified from bovine thymus (Bos taurus, UniProt Q3ZCM0).
T2 construct: Lck kinase purified from bovine thymus; purchased Upstate Biotechnology 14-106; host or cells: bovine thymus (tissue-purified)
In words: Lck inhibition assay (33P incorporation into poly Glu-Tyr). To be noted: 10 μM ATP; read-out: Activity in the Lck Inhibition Assay (Ki rating A-C). Put shortly:
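Filter-binding radiometric assay of 33P transfer from ATP to poly Glu-Tyr (4:1, 5 mg/ml) by bovine thymus Lck in 0.05 M HEPES pH 7.6, 10 mM MgCl2, 2 mM DTT, 0.25 mg/ml BSA, 10 μM ATP. After 10 min at 30° C, reaction started with 33P-ATP, run 20 min, quenched with TCA; filter-bound radioactivity counted by scintillation.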

T2 sequence (Q3ZCM0 1-509): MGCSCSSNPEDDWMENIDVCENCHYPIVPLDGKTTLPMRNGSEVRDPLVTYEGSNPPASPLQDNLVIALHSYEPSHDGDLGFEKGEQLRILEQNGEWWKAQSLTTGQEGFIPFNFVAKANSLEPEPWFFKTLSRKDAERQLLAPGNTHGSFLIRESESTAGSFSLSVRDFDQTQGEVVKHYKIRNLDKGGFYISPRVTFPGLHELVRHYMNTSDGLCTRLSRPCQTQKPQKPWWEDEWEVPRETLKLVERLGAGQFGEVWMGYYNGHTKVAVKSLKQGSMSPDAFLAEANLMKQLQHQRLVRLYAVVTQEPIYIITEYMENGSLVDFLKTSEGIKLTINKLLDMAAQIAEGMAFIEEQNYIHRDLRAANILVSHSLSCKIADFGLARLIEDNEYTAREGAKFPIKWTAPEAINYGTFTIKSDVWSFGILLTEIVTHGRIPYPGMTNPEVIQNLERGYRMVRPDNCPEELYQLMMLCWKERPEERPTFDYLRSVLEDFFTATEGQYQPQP

As usually defined, the Ki is the equilibrium dissociation constant of an inhibitor or competing ligand from its target. Consider `COc1cc(-c2ccnc(Nc3ccc(N)cc3)n2)cc(OC)c1OC` [Compound I-34], for which the values for the Ki (on activated JNK3; at CDK-2/Cyclin A; in assay [1]) were < 0.1 µM, > 5 µM and > 1 µM, respectively.

`COc1cc(-c2ccnc(Nc3cccc(N)c3)n2)cc(OC)c1OC` [Compound I-57]: the Ki at activated JNK3 was < 0.1 µM; on CDK-2/Cyclin A, > 5 µM; in assay [1], 0.1 to 1 µM.
